From patent US6541612B2 (Wyeth, priority 1993, dated 2003)

Columns and labels:
[1] = test system: rapamycin specific antibody; experiment: BIAcore binding of antibody to matrix-immobilized compound; conditions: 803 resonance units (RU) of the compound immobilized on a solid matrix, EDC and NHS
Description: The following example illustrates that 803 resonance units (RU) of the compound of Example 11 can be immobilized on a solid matrix using the BIAcore's standard protocol based on EDC and NHS used in a BIAcore. […] The kinetics of association and dissociation were determined for each concentration of antibody tested (0.625, 1.25, 2.5, 5.0, 10.0 ug/ml). […] This matrix can also be used for the isolation of novel binding proteins, as practiced by one skilled in the art. […] In one approach, tissue or cell lysates containing the appropriate protease inhibitors are incubated with FKBP which has been incubated with a deprotected-rapamycin 42-ester with N-[9fluoren-9-ylmethoxy)carbonyl]glycine conjugated matrix for a sufficient time to allow binding. Various buffers are used to rinse the proteins which are nonspecifically bound.

[2] = test system: RAP-42-OVAF2#1 MoAb; conditions: for fluorescence polarization on addition of RAP-42-OVAF2#1 MoAb: 5 ug/mL MoAb
Source text: The hybridoma cell line in P4G1 was cloned by limiting dilution and is designated as hybridoma cell line, RAP-42-OVAF2#1hc.

[3] = molecular target: T1, FKBP12 (Homo sapiens, UniProt P62942); experiment: Fluorescence polarization, tracer binding to FKBP12; conditions: for fluorescence polarization on addition of FKBP12: 0.ug FKBP12 to 1.00 mL 10 nM tracer; for fluorescence polarization before addition of FKBP12: 1.00 mL 10 nM tracer
T1 sequence (P62942 whole entry, species assumed): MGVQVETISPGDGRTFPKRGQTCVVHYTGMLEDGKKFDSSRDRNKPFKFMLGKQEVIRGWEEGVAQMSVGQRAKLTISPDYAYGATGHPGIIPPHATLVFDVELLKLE

[4] = molecular target: T1, FKBP12; experiment: Fluorescence polarization competition, rapamycin-fluorescein and FKBP12; assay type: binding
[5] = test system: RAP-42-OVAF2#1
[6] = test system: Anti-rapamycin Antibody; experiment: Capture ELISA of anti-rapamycin antibody levels in rabbit sera; assay type: binding; conditions: sera diluted 1:5, conjugate 0.5 ng/ml
Description: Microtiter plates (IMMUNOLON I) were coated overnight with 100 μl of goat anti-mouse antibody (10 μg/ml in 10 mM potassium phosphate buffer, pH 7.2) at 4° C. The plates were flicked and blocked with 100 μl of 1% bovine sera albumin in phosphate buffered saline overnight at 4° C. […] After flicking and washing the plates thrice with wash buffer, TMB substrate with H2O2 was added and the plates were incubated covered for 30 min. at room temperature in the dark. The optical density was read on a spectrophotometer at 450 nm.

[7] = test system: mice; conditions: 50 μg intrasplenically in Complete Freund's Adjuvant, boost 50 μg into footpads
Description: Microtiter plates (IMMUNOLON I) were coated overnight with 100 μl of goat anti-mouse antibody (10 μg/ml in 10 mM potassium phosphate buffer, pH 7.2) at 4° C. The plates were flicked and blocked with 100 μl of 1% bovine sera albumin in phosphate buffered saline overnight at 4° C. After flicking and washing the plates thrice with 10 mM phosphate buffer, pH 7.05, 30 mM NaCl, 0.02% TRITON X-100 (polyethylene glycol tert-octylphenyl ether) and 0.004% thimerosal wash buffer, 100 μl of each mouse sera diluted with phosphate buffer solution was added to a well and incubated at room temperature for overnight.

[8] = tracer 10 nM in 100 mM sodium phosphate pH 7.5

Molecule: COC1CC2CCC(C)C(O)(O2)C(=O)C(=O)N2CCCCC2C(=O)OC(C(C)CC2CCC(OC(=O)CNC(=O)OCC3c4ccccc4-c4ccccc43)C(OC)C2)CC(=O)C(C)C=C(C)C(O)C(OC)C(=O)C(C)CC(C)C=CC=CC=C1C (stereo not shown) [Example 11]
- rapamycin specific antibody bound by the matrix [1]: 1401 RU

Molecule: CO[C@H]1C[C@@H]2CC[C@@H](C)[C@@](O)(O2)C(=O)C(=O)N2CCCC[C@H]2C(=O)O[C@H]([C@H](C)C[C@@H]2CC[C@@H](OC(=O)CCC(=O)NCC(=O)Nc3ccc4c(c3)C(=O)OC43c4ccc(O)cc4Oc4cc(O)ccc43)[C@H](OC)C2)CC(=O)[C@H](C)/C=C(\C)[C@@H](O)[C@@H](OC)C(=O)[C@H](C)C[C@H](C)/C=C/C=C/C=C/1C [Example 23a, Rapamycin-42-ester with Succinic Acid Conjugate with 5-Glycinlfluoresceinamine]
- fluorescence polarization on addition of RAP-42-OVAF2#1 MoAb [2]: 58 mP
- polarization after addition of excess of RAP-42-OVAF2#1 MoAb [2, 8]: 84 mP
- fluorescence polarization on addition of FKBP12 [3]: 148 mP
- fluorescence polarization before addition of FKBP12 [3]: 57 mP
- polarization after addition of an excess of FKBP12 [3, 8]: 195 mP
- polarization of tracer alone ([3]; tracer 10 nM in 100 mM sodium phosphate pH 7.5, no binder): 77 mP

Molecule: CO[C@@H](C[C@@H]1CC[C@@H](C)[C@](O)(C(=O)C(=O)N2CCCC[C@H]2C(=O)[O-])O1)/C(C)=C/C=C/C=C/[C@@H](C)C[C@@H](C)C(=O)[C@H](OC)[C@H](O)/C(C)=C/[C@@H](C)C(=O)/C=C/[C@H](C)C[C@@H]1CC[C@@H](O)[C@H](OC)C1.[Na+] [secorapamycin]
- fluorescence polarization in the presence of analyte ([4]; 100 nM analyte, 128 mP in the absence of analyte, 500 uL 0.02 ug/mL FKBP12 + 500 μL 20 nM rapamycin-fluorescein): 122 mP
- effect on binding of rapamycin-fluorescein to FKBP12 (in words) ([4]; analyte 0 to 100 nM): no effect
- fluorescence polarization in the presence of analyte ([5]; 100 nM analyte, 124 mP in the absence of analyte, 500 μL 10 μg/mL MoAb + 500 μL 20 nM secorapamycin-fluorescein): 74 mP
- effect on binding of secorapamycin fluorescein derivative to RAP-42-OVAF2#1 (in words) ([5]; analyte 0 to 100 nM): inhibits binding

Molecule: Rapamycin 31.42-Diester with Glutaric Acid Conjugate with Horseradish Peroxidase [Example 10]
- Prebleed (A450) ([6]; Rabbit No. 81): 0.119
- ΔA450 (3rd Bleed-Prebleed) ([6]; Rabbit No. 81): 0.713
- Prebleed (A450) ([6]; Rabbit No. 89): 0.136
- ΔA450 (3rd Bleed-Prebleed) ([6]; Rabbit No. 89): 0.037

Molecule: Rapamycin 31.42-Diester with Glutaric Acid Conjugate with Keyhole Limpet Hemocyanin [Example 8]
- mice with antibodies reactive for compound of Example 10 [7]: five of the five

Molecule: Rapamycin 42-Ester with 3-[3-(4-iminobutylthio)succinimidyl]phenacyl-glycine Conjugate with Horseradish Peroxidase [Example 12]
- ΔA450 (3rd Bleed-Prebleed) ([6]; Rabbit No. 81): 0.217
- ΔA450 (3rd Bleed-Prebleed) ([6]; Rabbit No. 89): 0.026

Molecule: Secorapamycin 42-ester with Succinic Acid Conjugate with 5-Glycinylfluoresceinamine [Example 24]
- binding by RAP-42-OVAF2#1 MoAb (in words) [2]: binds specifically
- fluorescence polarization before addition of RAP-42-OVAF2#1 MoAb [2]: 44 mP
- fluorescence polarization on addition of RAP-42-OVAF2#1 MoAb [2]: 136 mP
- fluorescence polarization on addition of FKBP12 [3]: 58 mP
- fluorescence polarization before addition of FKBP12 [3]: 49 mP

B1: Rapamycin 42 Ester with (N-(3-carboxyphenyl)-3-thiosuccinimidyl)-glycine Conjugate with Horseradish Peroxidase (conjugate, UniProt P00433 31-338, looked up)
Peroxidase C1A: QLTPTFYDNSCPNVSNIVRDTIVNELRSDPRIAASILRLHFHDCFVNGCDASILLDNTTSFRTEKDAFGNANSARGFPVIDRMKAAVESACPRTVSCADLLTIAAQQSVTLAGGPSWRVPLGRRDSLQAFLDLANANLPAPFFTLPQLKDSFRNVGLNRSSDLVALSGGHTFGKNQCRFIMDRLYNFSNTGLPDPTLNTTYLQTLRGLCPLNGNLSALVDFDLRTPTIFDNKYYVNLEEQKGLIQSDQELFSSPNATDTIPLVRSFANSTQTFFNAFVEAMDRMGNITPLTGTQGQIRLNCRVVNSNS
modifications: rapamycin 42-ester hapten conjugate
- ΔA450 (3rd Bleed-Prebleed) ([6]; Rabbit No. 81): 0.114
- ΔA450 (3rd Bleed-Prebleed) ([6]; Rabbit No. 89): 0.020
